This is an account of results in PubChem BioAssay (NCI).

Common to all, as to assay: growth of human tumour cells (NCI), 48 h
Experiment [1] has as its system RXF 393 renal.
In experiment [2] the test system is M14 melanoma.
Experiment [3] relates to SNB-75 CNS.
In experiment [4] the test system is OVCAR-4 ovarian.
In experiment [5] the test system is MOLT-4 leukemia.
Experiment [6] deals with SF-268 CNS.
The subject of experiment [7] is CCRF-CEM leukemia.
Experiment [8] relates to MCF7 breast.
Experiment [9] relates to PC-3 prostate.
In experiment [10] the test system is OVCAR-8 ovarian.
Experiment [11] has as its system OVCAR-5 ovarian.
Experiment [12] has as its system DU-145 prostate.
For experiment [13], the system named is SK-MEL-5 melanoma.
The test system of experiment [14] is K-562 leukemia.
For experiment [15], the system named is SK-OV-3 ovarian.
For experiment [16], the system named is NCI-H226 lung.
For experiment [17], the system named is SF-295 CNS.
For experiment [18], the system named is MALME-3M melanoma.
The test system of experiment [19] is UO-31 renal.
Experiment [20] deals with HCC-2998 colon.

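Five concentrations, 48 hours, 96-well plates. The concentration for full growth arrest is given as TGI.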 Some results are limits rather than exact numbers.

With `CCN1C[C@]2(C)CC[C@H](OC)C34C5C[C@@H]6[C@@H](OC)C[C@@](OC)(C5[C@H]6OCc5ccccc5)C(C13)[C@H](OC(C)=O)[C@@H]42` (some centres not stated), the TGI is over 100 µM in experiment [1]; over 100 µM in experiment [2]; 36 µM in [3]; over 100 µM in experiment [4]; over 100 µM in experiment [5]; over 100 µM in experiment [6]. In addition, the TGI in experiment [7], in experiment [8], in experiment [9], in experiment [10], in experiment [11] and in experiment [12] was over 100 µM throughout. For the same compound, the TGI in [13], in [14], in [15], in experiment [16], in experiment [17] and in experiment [18] was over 100 µM each time. The compound also showed a TGI in experiment [19] of over 100 µM.
On to `CCC(C)N1CN(c2ccccc2)C2(CCN(CCCSc3ccc(F)cc3)CC2)C1=O` (configuration not stated), for which the TGI in experiment [2] is 7.08 µM; in experiment [3] it was 25 µM; in [5], 13.3 µM; in experiment [6], 23.7 µM; in experiment [7], 7.22 µM; in experiment [8] it was 11.1 µM. For the same compound, the TGI amounted to 19.4 µM in [9]; 21.5 µM in experiment [10]; 4.22 µM in experiment [20]; 7.06 µM in [11]; 10.1 µM in experiment [12]; 4.62 µM in [13]. Further, the TGI in experiment [14] is 6.26 µM; in [15] it was 19.1 µM; in [16] it was 17 µM; in [17] it was 5.57 µM; in experiment [18], 15.8 µM; in experiment [19] it was 6.61 µM.
In the case of `CNC(=O)N1N[C@H](c2ccccc2)[C@@H]1c1ccccc1`, the TGI in experiment [1] is 36.6 µM; in experiment [2], 56.1 µM; in experiment [3], 92.2 µM; in [4] it was over 100 µM; in experiment [5], 71.1 µM; in experiment [7], over 100 µM. For the same compound, the TGI in experiment [8] was 62.5 µM; in experiment [9], 99.1 µM; in experiment [10], 29.9 µM; in experiment [20], 68.8 µM; in experiment [11], over 100 µM; in experiment [13], 32.8 µM. For the same compound, the TGI in experiment [14] stood at 54.5 µM; in experiment [15] it was 91.2 µM; in [16], 32.8 µM; in [17], 41.2 µM; in experiment [18], 72.6 µM; in experiment [19], 74.4 µM.
Take `N#Cc1c(-c2ccccc2)cc(-c2ccccc2)n(C2OCC(O)C(O)C2O)c1=S` (configuration not stated): the TGI in experiment [1] was 35.6 µM; in experiment [2], 53.3 µM; in experiment [3], 66.3 µM; in experiment [4], 70.6 µM; in [5], over 100 µM; in experiment [6], 80 µM. Moreover, the TGI in [7] came to 93.1 µM; in [8] it was 41.7 µM; in [9], 29.4 µM; in experiment [10], 43.7 µM; in [11], 58.5 µM; in experiment [12], 49.3 µM. In addition, the TGI is 27.9 µM in experiment [13]; over 100 µM in [14]; 27.3 µM in [15]; 35.9 µM in experiment [16]; 39 µM in experiment [17]; 81 µM in experiment [18]. In experiment [19], this compound displayed a TGI of 54 µM.
In the case of `Cc1cccc(CNc2ncnc3[nH]ncc23)c1`, the TGI in experiment [1], in [2], in experiment [3], in experiment [4], in experiment [5] and in experiment [6] was over 100 µM each time. Besides, the TGI in experiment [7], in [8], in experiment [9], in [10], in experiment [11] and in [12] was over 100 µM in each case. Further, the TGI in [13], in [14], in [15], in [16], in experiment [17] and in experiment [18] was over 100 µM each time. In [19], this compound registered a TGI of over 100 µM.
With `Cc1ccc(/N=N/C(=NNC(=O)c2ccc(C)cc2)c2ccc(N(C)C)cc2)cc1`, the TGI in experiment [2] is 60.4 µM; in experiment [4], 54 µM; in [5], over 100 µM; in [6], over 100 µM; in [8], 46.2 µM; in experiment [9], over 100 µM. The TGI in [10] is over 100 µM; in experiment [20], 73.2 µM; in experiment [11], over 100 µM; in [12], 73.9 µM; in experiment [13], 30.7 µM; in [14], over 100 µM. In addition, the TGI in [15] was found to be 76.2 µM; in [16] it was 68.4 µM; in experiment [17], 76.1 µM; in [19], 68 µM.
On to `O=c1n(-c2ccccc2)c(=O)n2c(-c3ccccc3)c(-c3ccccc3)n12`, for which the TGI in experiment [1], in experiment [2], in [3], in [4], in experiment [5] and in [7] was over 100 µM throughout. Moreover, the TGI in [8], in experiment [9], in experiment [10], in [20], in experiment [11] and in experiment [13] was over 100 µM throughout. For the same compound, the TGI in [14], in [15], in experiment [16], in [17], in experiment [18] and in [19] was over 100 µM in each case.
